Converted amounts (≈) assume the structure as drawn. The source made the active and inactive calls. The rule behind the calls is not given here.

This note sets out measurements from ChEMBL document CHEMBL3751774, “Synthesis and anti-tubercular activity of conformationally-constrained and bisquinoline analogs of TMC207” (Medchemcomm, 2015).

The test system of test [1] is Mycobacterium tuberculosis. The test can be described thus: Antitubercular activity against Mycobacterium tuberculosis H37Rv infected in mouse BMDM assessed as reduction in colony forming units at 4 times MIC incubated for 4 days measured after 4 weeks relative to control. The format is functional. More on the design: scale not given: the % may be the effect or the level left.

Test [2] is described as follows: Cytotoxicity against Swiss mouse BMDM assessed as reduction in cell viability after 24 hrs by MTS assay.
Test [3] has as its system Mycobacterium tuberculosis. As to the kind of experiment: Antitubercular activity against Mycobacterium tuberculosis H37Rv assessed as growth inhibition after 4 weeks. The format is functional. The conditions noted are these: 672 h.
The target in the next test is ATP synthase. The test can be described thus: Inhibition of Mycobacterium tuberculosis ATP synthase. Type of test: protein-complex assay.
The nature of test [4]: Cytotoxicity against African green monkey Vero C1008 cells assessed as reduction in cell viability after 24 hrs by MTS assay. Type of test: cell-based. Conditions: Chlorocebus sabaeus. On the technique in general: Tetrazolium assays rely on reduction of a dye to a coloured formazan, in cell work by metabolically active cells.
For test [5], the system named is Mycobacterium tuberculosis. The test can be described thus: Antitubercular activity against Mycobacterium tuberculosis H37Rv infected in human blood monocyte derived macrophages assessed as reduction in colony forming units at 4 times MIC incubated for 4 days measured after 4 weeks. The format is functional, organism-based.
The subject of test [6] is Mycobacterium tuberculosis. As to the kind of experiment: Antitubercular activity against Mycobacterium tuberculosis H37Rv assessed as growth inhibition by BACTEC assay. Type of test: functional.
For test [7], the system named is Mycobacterium tuberculosis. The test can be described thus: Antitubercular activity against Mycobacterium tuberculosis H37Rv infected in Swiss mouse assessed as reduction in colony forming units in lungs at 100 mg/kg, po 6 days/week for 28 days measured after 3 to 4 weeks relative to control. Type of test: functional.
For test [8], the system named is Mycobacterium tuberculosis. The test can be described thus: Antitubercular activity against Mycobacterium tuberculosis H37Rv infected in Swiss mouse assessed as reduction in colony forming units in lungs at 50 mg/kg, po 6 days/week for 28 days measured after 3 to 4 weeks relative to control. Type of test: functional.
For test [9], the system named is Mycobacterium tuberculosis. As to the kind of experiment: Antitubercular activity against Mycobacterium tuberculosis H37Rv infected in Swiss mouse assessed as mean survival time at 50 mg/kg, po 6 days/week for 28 days (reference value: 27.8 days). Type of test: functional.
In test [10] the test system is Mycobacterium tuberculosis. As to the kind of experiment: Antitubercular activity against Mycobacterium tuberculosis H37Rv infected in Swiss mouse assessed as mean survival time at 100 mg/kg, po 6 days/week for 28 days (reference value: 27.8 days). Type of test: functional.
In test [11] the test system is Mycobacterium tuberculosis. The test can be described thus: Antitubercular activity against Mycobacterium tuberculosis H37Rv infected in Swiss mouse assessed as reduction in colony forming units in lungs at 25 mg/kg, po for 28 days measured after 3 to 4 weeks relative to control. Type of test: functional.
Test [12] concerns Mycobacterium tuberculosis. As to the kind of experiment: Antitubercular activity against Mycobacterium tuberculosis H37Rv infected in Swiss mouse assessed as mean survival time at 25 mg/kg, po for 28 days (reference value: 27.8 days). Type of test: functional.
The subject of test [13] is Mycobacterium tuberculosis. The test can be described thus: Antitubercular activity against Mycobacterium tuberculosis H37Rv infected in Swiss mouse assessed as reduction in colony forming units in lungs at 100 mg/kg, po for 28 days measured after 3 to 4 weeks relative to control. The format is functional.
The test system of test [14] is Mycobacterium tuberculosis. As to the kind of experiment: Antitubercular activity against Mycobacterium tuberculosis H37Rv infected in Swiss mouse assessed as mean survival time at 100 mg/kg, po for 28 days (reference value: 27.8 days). The format is functional.

For `COc1nc2ccccc2cc1C(c1cc2ccccc2nc1OC)C(O)(CCN(C)C)c1ccc2ccccc2c1` (stereo unspecified), in test [1], the Activity was 91%. Also, the IC50 (in general, the concentration needed to halve the response being measured) in test [2] is more than 100000 nM; against ATP synthase, 30 nM; in test [4], more than 100000 nM. For the same molecule, the minimal inhibitory concentration (MIC) (in general, the lowest concentration that inhibits growth of the organism) in test [3] is 0.39 µM (≈ 0.218 µg/mL). In addition, in [5], the result was Active.

Consider `C=CCOc1nc2ccccc2cc1C(c1cc2ccccc2nc1OCC=C)C(O)(CCN(C)C)c1cccc(Br)c1` (stereo unspecified), for which the minimal inhibitory concentration (MIC) in test [3] was more than 50 µM. Further, on ATP synthase, half-maximal inhibition (IC50) required 30 nM.

With `COc1nc2ccc(Br)cc2cc1[C@H](c1ccccc1)[C@@]1(O)c2ccccc2OC[C@@H]1CN(C)C` (racemic), the MIC90 (in general, the lowest concentration that inhibits either 90% of growth or 90% of the strains tested, depending on the study) in test [6] was more than 50 µM.

Turning to `COc1nc2ccccc2cc1C(c1cc2ccccc2nc1OC)C(O)(CCN(C)C)c1ccc(Br)cc1` (stereo unspecified), the concentration for half-maximal inhibition (IC50) in test [2] was more than 100000 nM; at ATP synthase, 10 nM; in test [4] it was more than 100000 nM. In test [3], the MIC came to 0.66 µM (≈ 0.387 µg/mL).

With `COc1nc2ccc(Br)cc2cc1[C@@H](c1ccccc1)[C@@]1(O)c2ccc(Br)cc2C[C@@H]1CN(C)C` (racemic), in test [6], the MIC90 was more than 50 µM.

As to `COc1nc2ccc(Br)cc2cc1[C@@H](c1ccccc1)[C@@]1(O)c2ccccc2OCC[C@@H]1CN(C)C` (racemic), the MIC90 in test [6] was 22.8 µM (≈ 12.5 µg/mL).

As to `COc1nc2ccc(Br)cc2cc1[C@H](c1ccccc1)[C@@]1(O)c2ccccc2C[C@@H]1CN(C)C` (racemic), in test [6], the MIC90 turned out to be 12.1 µM (≈ 6.26 µg/mL).

Consider `COc1nc2ccc(Br)cc2cc1[C@H](c1ccccc1)[C@@]1(O)c2ccc(Br)cc2C[C@@H]1CN(C)C` (racemic), for which the MIC90 in test [6] is more than 50 µM.

For the molecule `CO[C@H]1/C=C/O[C@@]2(C)Oc3c(C)c(O)c4c(O)c(c(/C=N/N5CCN(C)CC5)c(O)c4c3C2=O)NC(=O)/C(C)=C\C=C\[C@H](C)[C@H](O)[C@@H](C)[C@@H](O)[C@@H](C)[C@H](OC(C)=O)[C@@H]1C` [RIFAMPIN], the Activity in [1] is recorded as 98%.

`COc1nc2ccc(Br)cc2cc1[C@@H](c1ccccc1)[C@@]1(O)c2ccccc2C[C@@H]1CN(C)C` (racemic): in test [6], the MIC90 worked out at 48.3 µM (≈ 25 µg/mL).

Consider `COc1nc2ccc(Br)cc2cc1[C@@H](c1ccccc1)[C@@]1(O)c2cc(C)ccc2C[C@@H]1CN(C)C` (racemic), for which, in test [6], the MIC90 is more than 50 µM.

Consider `COc1nc2ccc(Br)cc2cc1[C@H](c1ccccc1)[C@@]1(O)c2cc(Cl)ccc2OCC[C@@H]1CN(C)C` (racemic), for which, in [6], the MIC90 is more than 50 µM.

As for `C=CCCOc1nc2ccccc2cc1C(c1cc2ccccc2nc1OCCC=C)C(O)(CCN(C)C)c1ccc(Br)cc1` (stereo unspecified), the concentration for half-maximal inhibition (IC50) in [2] is more than 100000 nM; against ATP synthase, 80 nM; in test [4], more than 100000 nM. Also, in test [3], the MIC was 1.56 µM (≈ 1.04 µg/mL).

Consider `COc1nc2ccccc2cc1C(c1cc2ccccc2nc1OC)C(O)(CCN(C)C)c1ccccc1` (stereo unspecified), for which the Activity in test [1] is 90%. Moreover, the results for the “fold change (FC)” value in [7] and in test [8] were 808.22 and 118, respectively. Further, the 50% inhibitory concentration (IC50) was more than 100000 nM in [2], 70 nM against ATP synthase and more than 100000 nM in test [4]. In [3], the MIC turned out to be 0.39 µM (≈ 0.198 µg/mL). For the same molecule, the MST in test [9] amounted to 29 days; in [10], 25 days. Besides, in [5], the outcome was Active.

`COc1nc2ccccc2cc1C(c1cc2ccccc2nc1OC)C(O)(CCN(C)C)c1cccc(Br)c1` (stereo unspecified): the figures for the IC50 (in test [2]; against ATP synthase; in test [4]) were more than 100000 nM, 50 nM and more than 100000 nM, respectively. Besides, the MIC in test [3] was 1.56 µM (≈ 0.915 µg/mL).

Regarding `COc1nc2ccc(Br)cc2cc1[C@@H](c1ccccc1)[C@@]1(O)c2ccccc2OC[C@@H]1CN(C)C` (racemic), the MIC90 in test [6] was more than 50 µM.

On to `COc1nc2ccc(Br)cc2cc1[C@H](c1ccccc1)[C@@]1(O)c2cc(Br)ccc2CC[C@@H]1CN(C)C` (racemic), for which the MIC90 in test [6] was more than 50 µM.

Consider `COc1nc2ccccc2cc1C(c1cc2ccccc2nc1OC)C(O)(CCN(C)C)c1cccc2ccccc12` (stereo unspecified), for which the values for the 50% inhibitory concentration (IC50) (in test [2]; against ATP synthase; in test [4]) were more than 100000 nM, 1 nM and more than 100000 nM, respectively. Also, the minimal inhibitory concentration (MIC) in test [3] worked out at 0.7 µM (≈ 0.39 µg/mL).

Regarding `NNC(=O)c1ccncc1` [ISONIAZID], in test [1], the Activity was 98%. Besides, in test [11], the “fold change (FC)” value turned out to be 257.08. Moreover, the MST in [12] stood at 29 days.

Consider `C=CCOc1nc2ccccc2cc1C(c1cc2ccccc2nc1OCC=C)C(O)(CCN(C)C)c1ccccc1` (stereo unspecified), for which, in [3], the MIC was more than 50 µM. Also, the 50% inhibitory concentration (IC50) against ATP synthase was found to be 40 nM.

For the molecule `C=CCOc1nc2ccccc2cc1C(c1cc2ccccc2nc1OCC=C)C(O)(CCN(C)C)c1ccc(Br)cc1` (stereo unspecified), in test [3], the minimum inhibitory concentration (MIC) was more than 50 µM. This molecule displayed an IC50 at ATP synthase of 280 nM.

As to `COc1nc2ccc(Br)cc2cc1[C@H](c1ccccc1)[C@@]1(O)c2ccccc2CC[C@@H]1CN(C)C` (racemic), in test [6], the MIC90 was more than 50 µM.

On to `COc1nc2ccc(Br)cc2cc1[C@@H](c1ccccc1)[C@@]1(O)c2cc(Cl)ccc2OCC[C@@H]1CN(C)C` (racemic), for which the MIC90 in test [6] is more than 50 µM.

Consider `COc1nc2ccc(Br)cc2cc1[C@@H](c1ccccc1)[C@@]1(O)c2cc(Br)ccc2CC[C@@H]1CN(C)C` (racemic), for which the MIC90 in test [6] is more than 50 µM.

`CN(C)CCC(O)(c1cccc(Br)c1)C1c2cc3ccccc3nc2OCC/C=C\CCOc2nc3ccccc3cc21` (stereo unspecified) registered an IC50 against ATP synthase of 10 nM.

Turning to `CC[C@@H](CO)NCCN[C@@H](CC)CO` [ETHAMBUTOL], the “fold change (FC)” value in [13] is reported as 26.94. For the same molecule, in test [14], the MST stood at 29 days.

On to `COc1nc2ccc(Br)cc2cc1[C@@H](c1ccccc1)[C@@]1(O)c2ccccc2CCC[C@@H]1CN(C)C` (racemic), for which the MIC90 in test [6] came to 45.8 µM (≈ 25 µg/mL).

Consider `COc1nc2ccc(Br)cc2cc1[C@@H](c1ccccc1)[C@@]1(O)c2ccccc2CC[C@@H]1CN(C)C` (racemic), for which the MIC90 in [6] is more than 50 µM.

With `COc1nc2ccc(Br)cc2cc1[C@H](c1ccccc1)[C@@]1(O)c2cc(C)ccc2C[C@@H]1CN(C)C` (racemic), the MIC90 in [6] was found to be 12.5 µM (≈ 6.64 µg/mL).
